Molecules are shown by their SMILES. Structures can show the parent of a compound that is named as a salt.

This is an account of results in patent US12409126B2, “Ginsenoside-containing composition, daily-use chemical and use thereof” (InCipirit Tech (Guangzhou) Co., Ltd., priority 2023, dated 2025).

In this assay the test system is human epidermal keratinocytes. The assay can be described thus: Epidermal keratinocyte proliferation in dermal papilla cell and epidermal keratinocyte double-layer culture system. It counts as cell-based. As to conditions: 0.2 μg/ml, 2 μg/ml, 20 μg/ml, 200 μg/ml. As to the method: 500 μl of human epidermal keratinocytes (30,000 cells/ml) were added to each well of MULTIWELL 24well, followed by the addition of 1.0 μm of cell culture inserts for culture for 1 day. 300 μl of dermal papilla cells (20,000 cells/ml) had been added in the 1.0 μm of cell culture inserts. each 1 μl/well of the Radix et Rhizoma Ginseng extracts 1-7, the positive control (minoxidil sulfate) and the blank control (DMSO) was then added for continued culture for 3 days. After removal of the 1.0 μm of cell culture inserts, 50 μl/well of Cell Counting Kit-8 (Dojindo Laboratories) was added for continued culture for 2 hours, and the cell number was determined using a microplate reader (450 nm, Mix0).

For the compound `Nc1cc(N2CCCCC2)nc(N)[n+]1OS(=O)(=O)[O-]` [Minoxidil sulfate, minoxidil sulfate], the “epidermal keratinocyte proliferation in double-layer culture system” value is on record as “no effect in promoting keratinocyte proliferation”.
